Measurements: patent publication US20140235544A1, “DISEASE TREATMENT VIA ANTIMICROBIAL PEPTIDES OR THEIR INHIBITORS” (priority 2013, published 2014)

Legend:
[1] = test system: psoriatic lesions in a human subject; test: Human in-vivo psoriatic lesion treatment
Method: Human in-vivo psoriatic lesion treatment: Cathelicidin 10 ug/ml or human beta defensin-2 diluted in PBS containing 0.1% BSA, or buffer carrier was applied to lesions in a human subject in a blind trial.

BETATC beta cell line = test: Thymidine incorporation cell proliferation assay; type: cell-based, mouse; conditions: 2 microgram/ml, 3.5 days
Method: Murine beta cell line were treated for 3.5 days with LL-37 at 2 microgram/ml (red/dark bars) and compared to PBS control ([…]). Cell proliferation was estimated by measuring [3(H)]-thymidine incorporation and was expressed as percent of control untreated cells. A representative experiment is shown.
The antimicrobial peptides human cathelicidin LL-37: […] was obtained from AnaSpec, USA (Catalogue numbers: 61302). Cathelicidin at 2 ug/ml was added to the plate and compared with control.
Cell proliferation was evaluated by measuring [3(H)]-thymidine incorporation into DNA. Cells were pulsed with [3(H)]-thymidine (1 microcurie/mL, ICN, Irvine, Calif.) for 1 hour, at 37 degrees centigrade. After incubation, cells were washed 3 times with PBS, incubated for 15 minutes at room temperature in 5% trichloroacetic acid and solubilized in 1% triton X-100. The radioactivity incorporated into the cells was counted in the [3(H)]-window of a Tricarb liquid scintillation counter. Mean values were determined from measurements of triplicate samples under each experimental condition for each experiment. Thymidine incorporation was determined as number of disintegrations per minute (DPM) per mg of protein.

[2] = Infection and immunity, November 1999; cited from earlier work
[3] = 10 ug/ml applied to lesion, 5 days treatment

Substance | change of skin psoriatic lesion [1, 3] | beta cell proliferation ([3(H)]-thymidine incorporation) vs PBS control (BETATC beta cell line) | half-life in blood of humans [2] | change of skin psoriatic lesion ([1]; applied to lesion, seven week course of treatment)
SKEKIGKEFKRIVQRIKDFLRNLVPRTES (listed as Homo sapiens) [SK29, cathelicidin fragment, 29 amino acids] | slight improvement |  |  | 
LLGDFFRKSKEKIGKEFKRIVQRIKDFLRNLVPRTES [LL-37] | slight improvement | significant BETATC beta cell line proliferation | approximately 3.4 days | 
human beta defensin-2 [reference compound] |  |  |  | worsening
